Reference: patent US10124065B2, “Lipids and lipid compositions for the delivery of active agents” (Novartis AG, priority 2013, dated 2018)

Columns and labels:
[1] = system: human leptin; assay: Mouse subcutaneous injection of modified synthetic leptin mRNA, human leptin ELISA; assay type: in vivo; conditions: human leptin in mouse plasma, 10 μg leptin mRNA
Experimental: Prior to subcutaneous injection, mouse body weights were recorded and diet weighted, with mice grouped according to their body weights. The mice were manually restrained and placed on a work surface. Their scruffs were pinched and lifted away from the underlying muscle, the space into which was inserted a 25 gauge needle connected with a 1 ml syringe. The syringe plunger was pulled backwards in such a way as to ensure no fluid was drawn into the syringe, and then the desired volume of leptin mRNA was hand injected with moderate pressure and speed. The needle was then withdrawn and the mice returned to their cages.
8-9 week old, male C57BL/6 mice were used for the in vivo study. FPLC purified modified synthetic leptin mRNA (SEQ ID NO: 5) in which the uridines were substituted with pseudouridine (N:P molar ratio=8:1) packaged in multiple cationic lipid were diluted in injectable saline at a dose of 10 μg per average group body weight.
On day 0, animals were weighed and sorted according to average body weight. ice were dosed at 9 AM and blood was taken at 9 AM on day 0. Blood was also taken at 9 AM on each of days 1 and 2 and assessed for leptin protein levels. Body weight and food intake were also recorded.
Human leptin in mouse plasma was measured by ELISA. Antibodies purchased from the R&D Systems duoset (Cat# DY398E, part#840279 for capture antibody and part#840280 for detection antibody) were reconstituted using PBS and titered, again using PBS. The capture antibody was coated at 4 ug/ml in 30 ul/well on a white Nunc® Maxisorp 384 well plate (Cat#460372). After an overnight incubation at room temperature the capture antibody was aspirated and the plate blocked for 2 hours at room temperature with 90 ul/well of KPL milk blocker (Cat#50-82-00). Once the incubation was completed the plate was aspirated and recombinant standards and samples were added to the plate at 30 ul/well for 2 hours at 37° C. while shaking at 600 rpm. Sample/standard dilutions were made using casein sample diluent. Washing/aspiration 3 times with 100 ul/well followed, using Teknova plate wash solution (Cat# P1192). Next, detection antibody was diluted using casein detection antibody diluent to 12.5 ng/ml and added at 30 ul/well for 2 hours room temperature. After this incubation, the plate was washed again and a solution of poly-streptavidin-HRP (Cat#21140) at a 1:1250 dilution in HRP dilution buffer was added to each well (30 ul/well) and incubated for 30 minutes room temperature. A final wash/aspiration removed the HRP solution and a chemiluminescent substrate was added at 30 ul/well (Cat#1859678 & 1859679). The plate was quickly read using a SpectramaxM5 plate reader with a 50 ms integration time. The dynamic range of the ELISA is from 100-2,000 pg/ml (6.25-125 pM) of human leptin. The assay is applicable to plasma from mice, rats and cynomolgus monkeys.

[2] = Particle size of lipid nanoparticle (dynamic light scattering, Malvern Zetasizer); assay type: physicochemical
Summary of the method: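 Sizes are average diameters of fully formed nanoparticles measured by dynamic light scattering. Samples were diluted in PBS to a count rate of about 200–400 kcts. Values are intensity-weighted Z-average sizes.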

[3] = Measurement of mRNA encapsulation (Quant-iT Ribogreen); assay type: physicochemical; conditions: leptin mRNA in lipid nanoparticles (cationic lipid, DSPC, cholesterol, stealth lipid)
Experimental: All equipment and disposable supplies were certified free of RNase activity by the manufacturer or rendered RNase free by use of the RNaseZap reagent (LifeTechnologies). mRNA was encapsulated at a cationic lipid amine to mRNA phosphate (N:P) molar ratio of 4:1. Lipids (cationic lipid, DSPC, cholesterol and lipidated PEG or stealth lipid) were dissolved in ethanol. The molar ratios were […], respectively. The mixture was sonicated briefly, then gently agitated for 5 minutes and then maintained at 37° C. until use. mRNA was exchanged into citrate buffer pH 5.8-6.0 by use of Amicon Ultra-15 centrifugal concentrators, and the final concentration was adjusted to 0.5 mg/ml and held at 37° C. until use. An equal volume of lipids in ethanol, mRNA in citrate buffer, and citrate buffer alone were drawn into disposable syringes. Tubing leading from syringes containing lipids and mRNA are attached to the T junction, and tubing leading from the syringe containing citrate buffer alone was paired with the tubing exiting the T-junction over a collection vessel containing a stir bar on an active stir plate. Syringes were placed in a syringe pump set to expel contents at a flow rate of 1 ml per minute.
The pump was activated, and the collected mRNA in lipid nanoparticles was transferred to SnakeSkin dialysis tubing (10,000 MWCO, Thermo Scientific). Material was dialyzed against RNAse- and pyrogen-free 1× phosphate buffered saline overnight at 4° C.
Percent encapsulation of mRNA in lipid nanoparticles was determined using the Quant-iT Ribogreen RNA Assay kit (Life Technologies). The LNP-mRNA suspension was assayed in buffer (mRNA outside the particle), and buffer plus Triton X-100 detergent (total mRNA). The difference calculated was the mRNA inside the particle. A 1000 ng/mL stock from the RNA provided in the kit was prepared and used to generate a standard curve (0 ng/ml, 15.63-1000 ng/ml) in TE and TE+0.75% Triton X-100. LNP-mRNA samples in TE buffer and TE buffer+0.75% Triton X-100 were prepared with appropriate dilution so that reading was in the range of standard curve (400-2,000 fold). In a 384-well plate (Costar non-treated #3573) 0.04 ml of standard (in duplicate) or sample (in triplicate) were added per well. Ribogreen reagent was diluted 240-fold in TE buffer and added 0.06 ml per well. The contents of wells were mixed and fluorescence was measured (excitation=480 nm, emission=520 nm). Background values (no RNA) were subtracted from standard and test sample values and the concentrations of RNA were determined in the samples using the standard curves. The percent encapsulation of the sample was determined by dividing the difference in concentrations between sample+triton and sample in buffer alone by the sample+triton concentration.

Size (nm) ([2]; FVII siRNA LNP, Chol/DSPC/PEG-DMG, molar ratio 45/44/9/2, Z-average) | Size (nm) ([2]; FVII siRNA LNP, Chol/DSPC/S010, molar ratio 45/44/9/2, Z-average) | Size (nm) ([2]; PLK1-424 siRNA LNP, Chol/DSPC/S010 45/44/9/2) | Size (nm) ([2]; leptin mRNA lipid nanoparticles) | % encapsulation [3] [%] | SMILES | Leptin expression SC-C57BI/6, 24 h [1] [ng/mL]
 |  |  |  |  | CCCCC/C=C\C/C=C\CCCCCCCC(=O)OCCCCOc1cc(CN(C)C)cc(OCCCCOC(=O)CCCCCCC/C=C\C/C=C\CCCCC)c1 [Example 38, (9Z,9′Z,12Z,12′Z)-((5-((dimethylamino)methyl)-1,3-phenylene)bis(oxy))bis(butane-4,1-diyl)bis(octadeca-9,12-dienoate)] | 0.99
108.4 | 123.8 | 116.3 | 127.8 | 96.0 | CCCCCCCCCCOC(=O)CCCCCCCOc1cc(CN(C)C)cc(OCCCCCCCC(=O)OCCCCCCCCCC)c1 [Example 57, didecyl 8,8′-((5-((dimethylamino)methyl)-1,3-phenylene)bis(oxy))dioctanoate] | 
